Assay [1] relates to acute promyelocytic leukemia mice. Put plainly: Secondary acute promyelocytic leukemia mouse model: survival and splenomegaly. It counts as in vivo. An excerpt:
FIG. 1: (A) Secondary acute promyelocytic leukemias were induced in mice. In brief, primary leukemias were induced in mice by injecting PMURAR expressing bone marrow cells into the tail veins. Mice with overt leukemias were euthanized, and leukemic cells were harvested from the spleen. Leukemic cells were re-injected i.v. (1×10^7 cells/mouse) in non-irradiated, syngeneic recipient mice. The secondary recipient mice developed overt leukemia in about 2-3 weeks. Leukemic mice or healthy mice (Ctrl) were then treated with placebo (lanes 1, 3), or VPA (400 mg/kg every 12 hours) for two consecutive weeks. (B) Leukemic mice were treated with placebo (lower, Ctrl) or VPA (400 mg/kg every twelve hours, upper) for one week. At the end of the treatment, mice were sacrificed, and spleens were photographed.

In assay [2] the test system is TRAIL. Put plainly: TRAIL expression in spleen after in vivo treatment (RNAse protection assay). Set-up: species or system mice. The note with it: VPA 400 mg/kg every 12 hours, FIG. 4A.
In assay [3] the test system is TRAIL. Put plainly: TRAIL expression in Calu-3 cells (quantitative PCR). It counts as cell-based, human. The note with it: VPA 1 mM, FIG. 4B. As for the experimental part:
FIG. 4: (A) Secondary acute promyelocytic leukemias were induced in mice as described above. Leukemic mice or healthy mice (Ctrl) were then treated with placebo (lanes 1, 3), VPA (400 mg/kg every 12 hours), all-trans retinoic acid (a 21-day-release pellet containing 5 mg RA or placebo: lanes 8-9), and VPA plus retinoic acid (lanes 10-11). Mice were sacrificed 18 hours (lanes 4-5), or 36 hours after beginning of treatment (lanes 3, 6-7, 10-11): total RNAs were collected from the spleens (with a >75% invasion of leukemic blasts as assessed by Giemsa staining) and analyzed by RNAse protection assay to check for expression of TRAIL. Faf and GAPDH were used as controls, not affected by these treatments. (B) Calu-3 cells (a human, non-small cell lung cancer derived cell line) were treated with VPA (1 mM) for the indicated times. RNA was extracted and analyzed by quantitative PCR (Perkin-Elmer), using primers specific for TRAIL. GAPDH was used to normalize.

The test system of assay [4] is HDAC-2. As to the kind of experiment: HDAC-2 protein levels in F9 teratocarcinoma cells (Westernblot). It counts as cell-based, murine. As for the experimental part: FIG. 6: (A) F9 teratocarcinoma or HEK293T embryonic kidney cells were exposed for indicated times to 1 mM VPA. Protein levels of HDAC-2 and HDACs 1 or 3 for reference (HDAC8; N-CoR and Sin3 as data not shown) were determined by Westernblot analysis. […] (C) The effect of other HDAC inhibitors on the amount of HDAC-2 protein was determined by using TSA (100 nM) in a time course analysis in F9 cells (left panel). The HDAC inhibitors TSA (100 nM), trapoxin (TPX, 10 nM), butyrate (1.5 mM) or MS275 (5 μM) were tested at a single time of exposure in HEK293T cells (right panel).

Assay [5] concerns HDAC-2. Put plainly: HDAC-2 protein levels in K562 leukemia cells. It is filed as cell-based, human.
Assay [6] concerns HDAC-2. Put plainly: HDAC-2 protein levels in NIH3T3 cells. It is filed as cell-based, mouse.
Another assay relates to HDAC-2 mRNA. Put plainly: HDAC-2 mRNA levels in F9 cells (Northern blot). It counts as cell-based, murine. The following applies: 1 mM VPA, FIG. 7. Here is the method: FIG. 7: F9 cells or HEK 293T cells were treated for indicated times with 1 mM VPA and the levels of HDAC-2 mRNA were determined by Northern blot analysis from 5 μg polyA^+ RNA.
Assay [7] relates to HDAC-2. Put plainly: HDAC-2 pulse labeling and pulse-chase analysis in F9 cells. It counts as cell-based, murine. The following applies: 1 mM VPA pretreatment 24 h. As for the experimental part:
(§1) FIG. 8: Synthesis and degradation rate of HDAC-2 were analyzed by pulse metabolic labeling with ^35S-methionine and pulse-chase analyses. ^35S-labelled HDAC-2 was detected by HDAC-2 specific immune precipitation followed by SDS-PAGE separation and autoradiography. (A) Pulse labeling for 1 h was performed in F9 and HEK293T cells which had been left untreated or were pretreated with 1 mM VPA for 24 h. (B) For pulse chase analysis cells were left untreated or pretreated for 24 h with 1 mM VPA and labeled with ^35S-methionine for an additional hour in the absence or presence of VPA. After removal of ^35S-methionine and addition of non-labeled methionine the elimination of radiolabeled HDAC-2 was followed over a period of 6 h. A pulse chase analysis was also performed in HEK293T cells without VPA pretreatment and addition of VPA (indicated by the (+) row) only at the time when the chase period was started. From HEK293T cell extracts also HDAC-3 was precipitated for reference.

Assay [8] deals with HDAC-2. Put plainly: HDAC-2 pulse labeling and pulse-chase analysis in HEK293T cells. It counts as cell-based, human. As for the experimental part: as §1
For another assay, the system named is Ubc8. As to the kind of experiment: Ubc8 expression in F9 cells (Northern blot, real time PCR). The following applies: 1 mM VPA, FIG. 11. It counts as cell-based, murine. As for the experimental part:
FIG. 11 (A) F9 cells were treated for indicated times with 1 mM VPA and abundance of Ubc8 mRNA was determined by Northern blot analysis from 5 μg polyA^+ mRNA with a probe drived from the 3′-UTR of the cDNA. GAPDH mRNA was determined as reference. Phosphorimager analysis was performed for quantitative evaluation and relative values normalized for GAPDH are presented below the graph. One of two experiments with similar results is shown. (B) Ubc8 mRNA was also determined by real time PCR assuming an 1.5-fold amplification per cycle. The amplicon was part of the coding sequence of the Ubc8 mRNA. F9 cells were treated for 17 h with 1 mM VPA (V) or 100 nM TSA (T). Results were normalized for GAPDH expression. Average values ± range of duplicate determinations are shown.
On the technique in general: In qPCR the cycle at which signal appears reflects the starting amount.

The next assay concerns RLIM. As to the kind of experiment: RLIM protein levels in HEK293T cells (Westernblot). It is filed as cell-based, human. The following applies: 24 hours, VPA 0.5, 1.5 or 5 mM, TSA 30, 100 or 300 nM, FIG. 12. As for the experimental part: FIG. 12 (A) RLIM protein levels were determined by Westernblot analysis after treatment of HEK293T cells for 24 hours with the HDAC inhibitors VPA (0.5, 1.5, or 5 mM), TSA (30, 100 or 300 nM) or a combination of VPA (1.5 mM) and TSA (100 nM). Actin protein levels are shown as a control for equal loading. (B) RLIM protein levels were determined by Westernblot analysis after treatment of HEK293T cells for 24 hours with the HDAC inhibitor TSA (100 nM), the proteasome inhibitor ALLN (2.5 μM) or a combination of both. Actin protein levels are shown as a control for equal loading.

`CCCC(CCC)C(=O)O` [VPA, Valproic acid]: the “survival of leukemic mice” value in [1] (VPA 400 mg/kg every 12 hours for two consecutive weeks vs placebo, P<0.01, FIG. 1A) was “extended survival of leukemic mice in a statistically significant way”. The “splenomegaly caused by blast infiltration” value in [1] (VPA 400 mg/kg every twelve hours for one week vs placebo, FIG. 1B) is given as “dramatic reduction in the splenomegaly”. The “TRAIL expression in spleen” value was “did not cause induction of TRAIL expression” in the assay on TRAIL [2] (healthy mice) and “induced TRAIL for the entire duration of treatment” in the assay with TRAIL [2] (leukemic mice, 18 or 36 hours). The “TRAIL expression (quantitative PCR, normalized to GAPDH)” value with TRAIL [3] is reported as “strongly induced”. The “HDAC-2 protein levels relative to untreated cells” value with HDAC-2 [4] (1 mM VPA, 24 h, persists up to 48 h, FIG. 6A (F9 and HEK293T, cell line not given)) was “about 30%”. In addition, the HDAC-2 protein levels entry with HDAC-2 [4] (F9 cells, VPA 1 mM, TSA 100 nM up to 48 h) is recorded as “reduced”; with HDAC-2 [5], “reduced”; in the assay on HDAC-2 [6] it was “reduced”. In the assay on HDAC-2 mRNA, the “HDAC-2 mRNA levels” value is “no response of HDAC-2 mRNA levels”. Moreover, the “HDAC-2 synthesis rate (35S-methionine pulse labeling)” value in the assay with HDAC-2 [7] (FIG. 8A) is “No substantial difference in HDAC-2 synthesis rate”; in the assay on HDAC-2 [8] (1 mM VPA pretreatment 24 h, FIG. 8A) it was “No substantial difference in HDAC-2 synthesis rate”. The “half-life of HDAC-2 (pulse-chase)” value is listed as “substantially decreased” in the assay with HDAC-2 [7] (FIG. 8B) and “substantially decreased” in the assay with HDAC-2 [8] (1 mM VPA pretreatment 24 h, FIG. 8B). The “HDAC-2 protein degradation rate” value with HDAC-2 [8] (VPA added only at the time of chase, FIG. 8B) is on record as “no effect”. In addition, in the assay on Ubc8, the “expression of the gene encoding Ubc8” value is on record as “inducible by VPA”. Also, the “RLIM protein levels / degradation” value with RLIM is “without changing expression of the E3 ubiquitin ligase, RLIM”.

The values are drawn from US20130231472A1, “USE OF MOLECULAR MARKERS FOR THE PRECLINICAL PROFILING OF INHIBITORS OF ENZYMES HAVING HISTONE DEACETYLASE ACTIVITY” (priority 2002, published 2013).
